Activity and MIC data for three compounds are collected here from ChEMBL document CHEMBL1144070, “Microbial transformation of sampangine” (1999).

One test deals with Candida albicans. The experiment in a line: Antifungal activity against Candida albicans NIH B311 after 24 hrs by agar well diffusion method. The class given is functional.
Test [1] has as its system Cryptococcus neoformans. In words: Antifungal activity against Cryptococcus neoformans ATCC 52657 after 48 hrs by agar well diffusion method. The class given is functional. Particulars: ATCC 52657, 48 h.
The test system of test [2] is Cryptococcus neoformans. In words: Antifungal activity against Cryptococcus neoformans infected in Swiss ICR mouse assessed as lethality at 50 mg/kg, ip administered 24 hrs post infection for 12 days. The class given is functional, organism-based. Also noted: dose 50 mg/kg.

Each structure is given as a SMILES string. Converted amounts (≈) assume the structure as drawn. The source made the active and inactive calls. The calls are words filed in the database; no cut-off is given here.

As to `CO[C@H]1[C@H](O)[C@@H](O)[C@H](Oc2c3c4c(ccnc4c4ccccc24)C=CN3)O[C@@H]1CO`, the outcome in the test with Candida albicans was inactive. In addition, in the test with Cryptococcus neoformans [1], the MIC came out at 0.2 µg/mL (≈ 0.487 µM).

`OC[C@H]1O[C@@H](Oc2c3c4c(ccnc4c4ccccc24)C=CN3)[C@H](O)[C@@H](O)[C@@H]1O`: the outcome in the test on Candida albicans and with Cryptococcus neoformans [2] was inactive. The same compound gave a minimal inhibitory concentration (MIC) in the test with Cryptococcus neoformans [1] of 0.78 µg/mL (≈ 1.97 µM).

For `O=C1c2ccccc2-c2nccc3ccnc1c23` [SAMPANGINE], the MIC against Candida albicans is 3.12 µg/mL (≈ 13.4 µM); against Cryptococcus neoformans [1], 0.2 µg/mL (≈ 0.861 µM).
